Test results as given in patent publication US12497409B2, “Crystal form of gonadotropin releasing hormone antagonist, preparation method therefor, and use thereof” (Shenzhen Rentai Pharmatech Ltd., priority 2019, dated 2025).

Assays:
Format in all cases: physicochemical
[1] = Saturation solubility in water (HPLC); settings: for Saturation solubility: in water, room temperature, stirred for 12 hours, excess solid, HPLC; for solubility, in words: saturation solubility, forms C and D compared with crystal form A
From the text: Samples for test: a crystal form C and a crystal form D of a compound of a formula (I), their preparation methods being respectively shown in Example 1 and Example 2, a preparation method of the crystal form A of the compound of the formula (I) being shown in Comparative example 1.
Test method: the crystal form A, the crystal form C, and the crystal form D of the compound of the formula (I) were respectively taken, to measure their saturation solubility in water, a specific method was: a suitable amount of the samples for test were respectively taken, and put into a […] sample bottle, 3 ml of a water solution was added, the solid was excess, and the obtained solution was placed at room temperature and stirred for 12 hours, and solubility in water was measured by using an HPLC method. The operation conditions of HPLC are as follows:
instrument: high performance liquid chromatograph (model: Thermo U3000)
chromatographic column: Agilent C18 column (5 μm, 150 mm×4.6 mm)
mobile phase composition and gradient elution program: […]
Detection wavelength: 254.4 nm;
column temperature: 30° C.

[2] = Hygroscopicity test, dynamic vapor sorption (DVS); settings: for hygroscopicity, in words: forms C and D compared with crystal form A
[3] = Stability test (illumination, high temperature, high humidity; XRPD and HPLC purity); settings: for Initial purity (day 0): day 0, before stress, HPLC; for crystal transformation (XRPD): 10 days
Experimental: Illumination stability: samples of the crystal form C and the crystal form D of the compound of the formula (I) (respectively prepared in Example 1 and Example 2) were respectively taken and placed at 25° C. under an illumination condition of 4500 Lux for 10 days, and samples were taken respectively on day 5 and day 10 at fixed time points to determine XRPD patterns of the crystal forms C and D and the content of N-(4-(1-(2,6-difluorobenzyl)-5-((dimethylamino)methyl)-3-(6-methoxy-3-pyridazinyl)-2,4-dioxo-1,2,3,4-tetrahydrothieno[2,3-d]pyrimidin-6-yl)phenyl)-N′-methoxyurea in the crystal forms C and D, which were compared with those of the samples on day 0. High temperature stability: samples of the crystal form C and the crystal form D of the compound of the formula (I) (respectively prepared in Example 1 and Example 2) were respectively taken and placed at 60° C. for 10 days, and samples were taken respectively on day 5 and day 10 at fixed time points to determine XRPD patterns of the crystal forms C and D and the content of N-(4-(1-(2,6-difluorobenzyl)-5-((dimethylamino)methyl)-3-(6-methoxy-3-pyridazinyl)-2,4-dioxo-1,2,3,4-tetrahydrothieno[2,3-d]pyrimidin-6-yl)phenyl)-N′-methoxyurea in the crystal form C and the crystal form D, which were compared with those of the samples on day 0. High humidity stability: samples of the crystal form C and the crystal form D of the compound of the formula (I) (respectively prepared in Example 1 and Example 2) were respectively taken and placed at 40° C. at 75% RH for 10 days, and samples were taken respectively on day 5 and day 10 at fixed time points to determine XRPD patterns of the crystal forms C and D and the content of N-(4-(1-(2,6-difluorobenzyl)-5-((dimethylamino)methyl)-3-(6-methoxy-3-pyridazinyl)-2,4-dioxo-1,2,3,4-tetrahydrothieno[2,3-d]pyrimidin-6-yl)phenyl)-N′-methoxyurea in the crystal form C and the crystal form D, which were compared with those of the samples on day 0. A specific stability test method can refer to the method in appendix XI C of Part II of Chinese Pharmacopoeia (2015 edition); the purity detection adopts an HPLC method, and the purity can be determined by an external standard method with reference to the method in appendix VD of Chinese Pharmacopoeia (2015 edition) by using the samples on day 0 as a reference substance. instrument: high performance liquid chromatograph (model: Thermo U3000) chromatographic column: Agilent C18 column (5 μm, 150 mm×4.6 mm) mobile phase composition and gradient elution program: [table] detection wavelength: 254.4 nm; flow rate: 1 ml/min; sample size:15 μL; column temperature: 30° C.

[4] = as above; settings: high humidity (25° C., 92.5% RH), 10 days
[5] = 25° C., 4500 Lux (illumination), listed as crystal form D
[6] = 40° C., 75% RH (high humidity), listed as crystal form D
[7] = 60° C. (high temperature), listed as crystal form D
[8] = 25° C., 4500 Lux (illumination), listed as crystal form C
[9] = 40° C., 75% RH (high humidity), listed as crystal form C
[10] = 60° C. (high temperature), listed as crystal form C

## CONC(=O)Nc1ccc(-c2sc3c(c2CN(C)C)c(=O)n(-c2ccc(OC)nn2)c(=O)n3Cc2c(F)cccc2F)cc1 [Crystal form A, N-(4-(1-(2,6-difluorobenzyl)-5-((dimethylamino)methyl)-3-(6-methoxy-3-pyridazinyl)-2,4-dioxo-1,2,3,4-tetrahydrothieno[2,3-d]pyrimidin-6-yl)phenyl)-N′-methoxyurea]
[1]
  Saturation solubility: 28.50 µg/mL
[1]; listed as crystal form A
  solubility, in words: low solubility
[2]; 25° C., humidity gradually increased from 0 to 50% RH
  moisture absorption (hygroscopy gain): 0.57%
[2]; 25° C., humidity gradually increased from 0 to 90% RH
  hygroscopicity (hygroscopy gain): 25.84%
[2]; listed as crystal form A
  hygroscopicity, in words: high hygroscopicity

## CONC(=O)Nc1ccc(-c2sc3c(c2CN(C)C)c(=O)n(-c2ccc(OC)nn2)c(=O)n3Cc2c(F)cccc2F)cc1 [Crystal form D, N-(4-(1-(2,6-difluorobenzyl)-5-((dimethylamino)methyl)-3-(6-methoxy-3-pyridazinyl)-2,4-dioxo-1,2,3,4-tetrahydrothieno[2,3-d]pyrimidin-6-yl)phenyl)-N′-methoxyurea]
[1]; listed as crystal form D
  Saturation solubility: 87.21 µg/mL
  solubility, in words: significantly improved
[2]; listed as crystal form D
  hygroscopicity, in words: significantly decreased
[3]; [5]
  Purity change on day 10: 0.50%
  Purity on day 5: 98.1%
  Purity on day 10: 98.57%
[3]; [6]
  Purity change on day 10: 1.86%
  Purity on day 5: 97.88%
  Purity on day 10: 97.21%
[3]; [7]
  Purity change on day 10: 2.56%
  Purity on day 5: 96.25%
  Purity on day 10: 96.51%
[3]; listed as crystal form D
  Initial purity (day 0): 99.07%

## CONC(=O)Nc1ccc(-c2sc3c(c2CN(C)C)c(=O)n(-c2ccc(OC)nn2)c(=O)n3Cc2c(F)cccc2F)cc1 [Crystal form C, N-(4-(1-(2,6-difluorobenzyl)-5-((dimethylamino)methyl)-3-(6-methoxy-3-pyridazinyl)-2,4-dioxo-1,2,3,4-tetrahydrothieno[2,3-d]pyrimidin-6-yl)phenyl)-N′-methoxyurea]
[1]; listed as crystal form C
  Saturation solubility: 101.75 µg/mL
  solubility, in words: significantly improved
[2]; listed as crystal form C
  hygroscopicity, in words: significantly decreased
[3]; [8]
  Purity change on day 10: 0.49%
  Purity on day 5: 98.99%
  Purity on day 10: 98.84%
[3]; [9]
  Purity change on day 10: 3.33%
  Purity on day 5: 96.88%
  Purity on day 10: 96%
[3]; [10]
  Purity change on day 10: 2.58%
  Purity on day 5: 97.89%
  Purity on day 10: 96.75%
[3]; listed as crystal form C
  Initial purity (day 0): 99.33%
[3]; high temperature (60° C.)
  crystal transformation (XRPD): no crystal transformation
[3]; strong illumination (25° C., 4500 Lux)
  crystal transformation (XRPD): no crystal transformation
[4]
  crystal transformation (XRPD): no crystal transformation
